Tests used:
As7 with luxCDABE operon = assay: plate reader induction of arsenic sensor, Lux reporter; assay type: cell-based; conditions: Tecan plate reader
Method: Luminescent reporters. […] In FIG. 8, we compare these reporters driven by an arsenic-responsive promoter, where the induction response was measured side-by-side using a Tecan plate reader.
For comparison, the arsenic concentration used for testing the GFP construct in a microfluidic device was 130 nM, or 0.13 μM. Thus, replacing GFP with Lux promises to greatly increase the sensitivity of the biosensor.
The arsenic sensor construct As7 was modified to replace the gfp gene with the luxCDABE operon, and relative induction (fluorescence or luminescence) of the two constructs was tested side-by-side using a Tecan Infinite M200 Pro plate reader (see FIG. 38). […] In contrast, the GFP construct was sensitive to arsenic only above a concentration of 26 nM. For comparison, we were able to detect an arsenic concentration of 130 nM using the GFP construct in a microfluidic device. Thus, replacing GFP with Lux promises to greatly increase the sensitivity of the biosensor.

GFP sensor strains = assay: SVM classification of GFP sensor responses (toxin / no toxin); assay type: cell-based; conditions: from classification accuracy and ROC curves
From the text: Computational models to determine the threshold of detection for specific sensors based on models of experimental GFP responses. We used machine learning techniques to determine the relationships between the GFP output signal and the presence of a toxin. We have created a database containing the collected sensor response data. We have quantified the GFP threshold of detection for each sensor construct. We have constructed Receiver Operating Characteristic (ROC) curves for each sensor to achieve robust sensing. We constructed machine learning models capable of inferring the relationships between the GFP sensor responses and the presence or absence of a toxin at a given concentration. The algorithm learns these relationships from a set of training samples (GFP sensor responses) defined by the set of experimental conditions from which they were generated. The aim of the algorithm is to provide a general method capable of determining the experimental conditions associated with GFP sensor responses through the use of historical data. Specifically, we have built classification models based on Support Vector Machines (SVMs), which is one of the most popular classifiers due to its excellent performance in many contexts and its solid mathematical basis (1). For each toxin and concentration, we solved a binary classification problem in which the positive class represents the presence of the toxin in water and the negative class is associated with clean environments. Patterns were constructed with features containing GFP sensor responses at various timestamps to capture the temporal dynamics of the GFP signal. The optimal meta-parameters of the SVM classifier were determined by applying a 5-crossvalidation during the training phase (2). In order to have a reliable estimate of the performance of the model when deployed in real environments, we measured its performance over a set of samples (test patterns) not seen during the training phase. The SVM's performance was determined by the percentage of test samples correctly labeled as toxin/no toxin (classification accuracy). 80% of samples were used for training the SVM models and the remaining 20% of samples was used to evaluate their effectiveness. We generated 20 random training/test partitions to have an estimate of performance independent of the data partition.
Specifically, we have built classification models based on Support Vector Machines (SVMs), which is one of the most popular classifiers due to its excellent performance in many contexts and its solid mathematical basis. For each toxin and concentration, we solved a binary classification problem in which the positive class represents the presence of the toxin in water and the negative class is associated with clean environments. Patterns were constructed with features containing GFP sensor responses at various timestamps to capture the temporal dynamics of the GFP signal. The optimal meta-parameters of the SVM classifier were determined by applying a 5-crossvalidation during the training phase.
In order to have a reliable estimate of the performance of the model when deployed in real environments, we measured its performance over a set of samples (test patterns) not seen during the training phase. The SVM's performance was determined by the percentage of test samples correctly labeled as toxin/no toxin (classification accuracy). 80% of samples were used for training the SVM models and the remaining 20% of samples was used to evaluate their effectiveness. We generated 20 random training/test partitions based on data collected in single-strain chips (no crosstalk data) to have an estimate of performance.

E. coli MG1655/Cd1 = assay: 8-strain chip induction (fluorescence induction ratio); assay type: cell-based; conditions: toxin at t=0, pure water at t=2 hours; cadmium 0.05, lead 1.8 μM
From the text: (§1) An overview of the sensor can be seen in FIG. 39. In order to acquire the large amount of data required to successfully train the classifier, five replicates of the fully self-contained device prototype were built, in which the microfluidic devices are mounted and imaged using custom-designed optics as shown in some embodiments herein (Milestone 6.9). The majority of the data for this project was acquired using a novel microfluidic device capable of housing eight different bacterial strains that receive media from a shared source. […] The design was expanded to house 18 strains and we have begun taking data with this new chip to provide larger datasets to the classifier. A detailed CAD drawing of this device can be seen in FIG. 56. The 18 cell trapping regions are vacuum-loaded from 18 downstream fluidic ports. Long, serpentine channels upstream of the trapping regions serve as fluidic buffer zones to prevent the cross-contamination of strains while loading. The toxin concentration is controlled dynamically by a peristaltic pump that mixes a water/toxin combination (representing the source water stream) with a concentrated medium stock.
(§2) In each panel, the time series data for the “on-target” responding strain is plotted in bold.

E. coli MG1655/Hg3 [1] = assay: as above; assay type: cell-based; conditions: toxin at t=0, pure water at t=2 hours; cadmium 0.05, mercury 0.2 μM
From the text: as §1, §2

E. coli LABEC01/Cr5 = assay: on-chip time-lapse induction of promoter construct (GFP, gill chip); assay type: cell-based
Method: (§4) For on-chip induction experiments, strains were loaded into the device and grown in M9 minimal medium with 0.4% glucose and 50 μg/ml spectinomycin (for plasmid maintenance) for 2 days in the absence of toxin. Cells were imaged under 4× brightfield and GFP fluorescence filters on an Olympus IX-81 microscope every 2 min for 6 h under these non-inducing conditions to generate a fluorescence baseline. The toxin was then introduced to induce GFP expression and the cells were imaged every 2 min for 6 h.
(§5) To determine the response to toxin induction, the raw fluorescence images before and after induction were compared. The image stacks were analyzed using a custom ImageJ script to measure the average GFP signal over time for each cell trap. Any linear trend in the uninduced fluorescence data due to cell growth was subtracted from the data. In this manner, the dynamic signal-to-noise ratio (SNR) was calculated as: (current fluorescence−mean uninduced fluorescence)/(standard deviation of uninduced fluorescence).
(§6) This microfluidic platform was then used to measure the response of several toxin responsive promoter constructs identified from the literature and synthesized by Transcriptic. […] Note that SNR values greater than 2 indicate a significant response.

E. coli MG1655/Cu1 = assay: 8-strain chip induction (fluorescence induction ratio); assay type: cell-based; conditions: toxin at t=0, pure water at t=2 hours; copper 5, lead 1.8 μM
From the text: as §1, §2

E. coli MG1655/Pb7 = assay: 18-strain chip induction; assay type: cell-based
From the text: (§3) In an embodiment herein, the toxin response data across 18 unique sensing strains were also collected using a new chip design that houses 16 E. coli strains and 2 B. subtilis strains. The B. subtilis NCIB 3610/Amm3 construct is a “lights-off” sensor, meaning that GFP production drops when ammonium is introduced, following a slight increase due to faster growth on this preferred nitrogen source. […] By combining these sensor responses, we can identify cobalt by the unique response of Pb7 alone and lead by the unique combination of Zn6, Pb7, and Pb8 responses.

E. coli MG1655/Pb8 = assay: 18-strain chip induction; assay type: cell-based; conditions: Zn6, Pb7, Pb8 in descending magnitude
From the text: as §3

E. coli MG1655/Zn6 = assay: 18-strain chip induction; assay type: cell-based; conditions: Zn6, Pb7, Pb8 in descending magnitude
From the text: as §3

E. coli MG1655/Hg3 [2] = test system: E. coli MG1655/Hg3
Method: as §4, §5, §6

Compound	threshold of detection (GFP sensor strains) [µM]	GFP response of strain Cd1 (E. coli MG1655/Cd1)	GFP response of strain Hg3 (E. coli MG1655/Hg3 [1])	GFP response of strain Cu1 (E. coli MG1655/Cu1)	also measured
[As] [Arsenic]					arsenic concentration detected, Lux construct (As7 with luxCDABE operon): 0.2 nM
[Cd] [Cadmium]	0.44	responding	responding		
[Cr+6] [Chromium(VI)]	1.25				SNR after 6 h (E. coli LABEC01/Cr5; 5 μM chromium(VI), 6 h induction, SNR > 2 = significant response): 5; Concentration Sensed in Microfluidic Device (E. coli LABEC01/Cr5; chrB/pchrB from O. tritici transposon, native RBS): 5 µM
[Cu] [Copper]	5			sensitively responding	
[Pb] [Lead]	1.8	responding at lesser magnitudes		responding at lesser magnitudes	GFP response of strain Pb7 (E. coli MG1655/Pb7): respond sensitively; GFP response of strain Pb8 (E. coli MG1655/Pb8): respond sensitively; GFP response of strain Zn6 (E. coli MG1655/Zn6): respond sensitively
Mercury	1		sensitively responding		SNR after 6 h (E. coli MG1655/Hg3 [2]; 0.1 μM mercury, 6 h induction, SNR > 2 = significant response): 20; Concentration Sensed in Microfluidic Device (E. coli MG1655/Hg3 [2]; merR/pmerR from E. coli plasmid, synthetic RBS): 0.1 µM

From patent US20220057378A1, “MICROBIAL MICROFLUIDIC BIOSENSOR” (priority 2015, published 2022)
